Test results as given in patent US11701369B2, “Polymeric bile acid derivatives inhibit Hepatitis B and D virus and NTCP transport” (Huahui Health Ltd., priority 2014, dated 2023).
“Also recorded” adds a separate entry of the source.

How the values were obtained:
HBV [1] = assay: HBV infection assay on HepaRG cells (HBsAg and HBeAg ELISA); format: cell-based, Hepatitis B virus; conditions: HBsAg and HBeAg at 5 dpi
Procedure: FIG. 11 HepaRG cells were infected with HBV in the presence of indicated PBADs. The level of secreted HBsAg and HBeAg was detected by ELISA at 5 dpi.
The antiviral potency of PBADs is also repeatable on other HBV infection system (HepaRG) with similar inhibition profile. […] HBV infection was conducted in the presence of NQL028, NQL018, NQL029, NQL019 and NQL021, all of which were bis-ester based PBADs with different linkage length.

HBV [2] = assay: HBV infection assay on HepG2-NTCP cells (secreted HBeAg by ELISA); format: cell-based, Hepatitis B virus; conditions: HepG2-NTCP cells, secreted HBeAg
Procedure: (§1) HBV and HDV infection assay. HepG2NTCP Cells were cultured in PMM for 12-24 hrs before infection, and then inoculated with 200 multiplicities of genome equivalents (mge) of HBV, or 500 mge of HDV in the presence of 5% PEG8000 in PMM at 37° C. for about 24 hrs. Chemicals to be tested were added to the cells as indicated in the specific assays. The inoculum was replenished by PMM post infection. The infections were detected at day 5 post infection (dpi).
ELISA assay for the detection of HBeAg and HBsAg. ELISA kits for HBeAg and HBsAg detection were from Wantai Pharm Inc. (Beijing, China). Supernatant from infected HepG2NTCP cells was collected on 2-5 days post infection. The secreted HBeAg and HBsAg in the culture medium was measured with a commercial kit from Wantai Pharm Inc (Beijing, China) by following the manufactory's instructions.

HDV = HDV infection assay on HepG2-NTCP cells (intracellular delta antigen staining); format: cell-based, Hepatitis D virus
Procedure: as §1
Immunostaining assay. For HBV infection, infected cells were washed twice with PBS and fixed in 3.7% paraformaldehyde (PFA) at room temperature for 10 mins. Subsequently, cells were permeabilized with 0.5% Trition X-100/PBS for 10 mins at room temperature, blocked with 3% BSA at 37° C. for 1 hour, and followed by incubating with 5 μg/ml mouse mAb1C10 which recognizes HBcAg, and followed by staining with FITC-conjugated secondary antibody. Nucleus was stained with DAPI in blue. The stained cells were imaged with the fluorescence microscope (Nikon). For HDV infection, on 5 dpi, HDV infected cells were fixed with 100% methanol at room temperature for 10 mins, intracellular delta antigens were then stained with 5 μg/ml of FITC conjugated 4G5 and nucleus were stained with DAPI in blue. Images were collected by an Eclipse Ti Fluorescence Microscope (Nikon) and a representative picture is shown.

NTCP = molecular target: T1, NTCP (Homo sapiens, UniProt Q14973); assay: [3H] taurocholate uptake assay on HepG2-NTCP cells; format: cell-based; conditions: co-incubation assay, [3H] taurocholate, 10 min
T1 construct: expressed in transfected cells
T1 sequence (Q14973 1-349): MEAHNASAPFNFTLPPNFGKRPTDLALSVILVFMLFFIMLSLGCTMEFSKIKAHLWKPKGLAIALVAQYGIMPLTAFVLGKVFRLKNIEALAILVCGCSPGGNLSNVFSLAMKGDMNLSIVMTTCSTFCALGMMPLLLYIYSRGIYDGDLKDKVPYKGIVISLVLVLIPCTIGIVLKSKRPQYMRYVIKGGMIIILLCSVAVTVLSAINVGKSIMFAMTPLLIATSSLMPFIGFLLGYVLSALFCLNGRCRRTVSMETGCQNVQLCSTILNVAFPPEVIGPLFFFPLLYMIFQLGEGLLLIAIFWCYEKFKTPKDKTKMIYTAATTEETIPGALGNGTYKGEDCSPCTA
Procedure: [3H] substrate uptake assay. [3H]taurocholate uptake assay was conducted following a protocol as previously described(60). In general, HepG2-NTCP cells were cultured in PMM for 12-24 hrs, then were treated with or without indicated chemicals before uptake assay. For substrate uptake assay, cells were generally incubated with 0.5 μl (0.5 μCi) [3H]-taurocholate dissolved in Na+ Ringer's solutions for 10 mins at 37° C. with or without the presence of chemicals. Subsequently, cells were washed once by PBS and lysed by 100 μl of 1% TritonX-100 in H2O for 5 mins at room temperature. The lysate was transferred into liquid scintillation tube and mixed with 900 μl liquid scintillation cocktail (Ultima GOLD™ XR) (Perkin Elmer, USA). Liquid scintillation counting was performed on a Perkin Elmer 1450 LSC Liquid Scintillation Counter and Luminescence Counter.

HBV [3] = assay: In vitro stability: incubation with HBV inocula before infection, HBeAg ELISA; format: cell-based, Hepatitis B virus; conditions: incubated with HBV inocula for different times before infection, HBeAg at 5 dpi
Procedure: FIG. 10 The influence of the linkage groups on the in vitro stability of PBADs. TUDCA, NQL018, NQL044, and NQL055 were incubated with HBV inocula of different times before viral infection, and present in the inocula during infection period. The level of secreted HBeAg was detected by ELISA at 5 dpi.
The in vitro stability of PBADs could PBADs could be enhanced by optimization of the linkage bond. We conducted stability analysis of several PBADs with similar structure but of different linkage. […] This indicates the in vitro and in vivo stability is to a large extent determined by the feature of the linkage groups.

| SMILES | inhibition of HBV infection (in words) (HBV [2]) | also measured |
| --- | --- | --- |
| C[C@H](CCC(=O)NCCS(=O)(=O)O)[C@H]1CC[C@H]2[C@@H]3[C@@H](O)CC4C[C@H](OC(=O)CCCCCC(=O)O[C@@H]5CC[C@@]6(C)C(C5)C[C@H](O)[C@H]5[C@@H]7CC[C@H]([C@H](C)CCC(=O)NCCS(=O)(=O)O)[C@@]7(C)CC[C@@H]56)CC[C@]4(C)[C@H]3CC[C@]12C (stereo in doubt) [NQL-019] | – | inhibition of HBV infection on HepaRG cells (in words) (HBV [1]): inhibited HBV infection |
| C[C@H](CCC(=O)NCCS(=O)(=O)O)[C@H]1CC[C@H]2[C@@H]3[C@@H](O)CC4C[C@H](OC(=O)CCC(=O)O[C@@H]5CC[C@@]6(C)C(C5)C[C@H](O)[C@H]5[C@@H]7CC[C@H]([C@H](C)CCC(=O)NCCS(=O)(=O)O)[C@@]7(C)CC[C@@H]56)CC[C@]4(C)[C@H]3CC[C@]12C (stereo in doubt) [NQL-028] | – | inhibition of HBV infection on HepaRG cells (in words) (HBV [1]): inhibited HBV infection |
| C[C@H](CCC(=O)NCCS(=O)(=O)O)[C@H]1CC[C@H]2[C@@H]3[C@@H](O)CC4C[C@H](OC(=O)CCCCC(=O)O[C@@H]5CC[C@@]6(C)C(C5)C[C@H](O)[C@H]5[C@@H]7CC[C@H]([C@H](C)CCC(=O)NCCS(=O)(=O)O)[C@@]7(C)CC[C@@H]56)CC[C@]4(C)[C@H]3CC[C@]12C (stereo in doubt) [NQL-029] | – | inhibition of HBV infection on HepaRG cells (in words) (HBV [1]): inhibited HBV infection |
| C[C@H](CCC(=O)NCCS(=O)(=O)O)[C@H]1CC[C@H]2[C@@H]3[C@@H](O)CC4CC5(CC[C@]4(C)[C@H]3CC[C@]12C)N=N5 (stereo partly shown) [3-Diz-TUDCA] | did not show significantly improved inhibitory efficiency over the natural monomeric TUDCA | – |
| CC(=O)O[C@@H]1CC[C@@]2(C)C(C1)C[C@H](O)[C@H]1[C@@H]3CC[C@H]([C@H](C)CCC(=O)NCCS(=O)(=O)O)[C@@]3(C)CC[C@@H]12 (stereo partly shown) [3-OAc-TUDCA] | did not show significantly improved inhibitory efficiency over the natural monomeric TUDCA | – |
| C[C@H](CCC(=O)NCCS(=O)(=O)O)[C@H]1CC[C@H]2[C@H]3[C@H](CC[C@]12C)[C@@]1(C)CC[C@@H](O)CC1CC31N=N1 (stereo partly shown) [7-Diz-TUDCA] | did not show significantly improved inhibitory efficiency over the natural monomeric TUDCA | – |
| C[C@H](CCC(=O)OCCCCC[C@@H]1SC[C@@H]2NC(=O)N[C@@H]21)[C@H]1CC[C@H]2C3[C@@H](O)CC4C[C@H](O)CC[C@]4(C)[C@H]3CC[C@]12C (stereo partly shown) [Biotin-UDCA] | did not show significantly improved inhibitory efficiency over the natural monomeric TUDCA | – |
| CCN(CCCN(C)C)C(=O)OC(=O)CC[C@@H](C)[C@H]1CC[C@H]2[C@@H]3[C@@H](O)CC4C[C@H](O)CC[C@]4(C)[C@H]3CC[C@]12C (stereo partly shown) [CA-UDCA, Carbamic-UDCA] | did not show significantly improved inhibitory efficiency over the natural monomeric TUDCA | – |
| C[C@H](CCC(=O)NCCCC1(C)N=N1)[C@H]1CC[C@H]2[C@@H]3[C@@H](O)CC4C[C@H](O)CC[C@]4(C)[C@H]3CC[C@]12C (stereo partly shown) [Diz-UDCA, Diz-Ursodeoxycholic acid] | did not show significantly improved inhibitory efficiency over the natural monomeric TUDCA | – |
| C[C@H](CCC(=O)NCCS(=O)(=O)O)[C@H]1CC[C@H]2[C@@H]3[C@@H](O)CC4C[C@@H](O)CC[C@]4(C)[C@H]3CC[C@]12C (stereo partly shown) [Iso-TUDCA, Iso-tauroursodeoxycholic acid] | did not show significantly improved inhibitory efficiency over the natural monomeric TUDCA | – |
| C[C@H](CCC(=O)NCCS(=O)(=O)O)[C@H]1CC[C@@H]2C3[C@@H](OC(=O)CC[C@@H](C)[C@H]4CC[C@@H]5C6[C@@H](CC[C@@]54C)[C@@]4(C)CC[C@H](O)CC4C[C@@H]6O)CC4C[C@@H](O)CC[C@]4(C)[C@@H]3CC[C@@]21C (stereo partly shown) [NQL-015] | high antiviral activity; also recorded: greatly improved potency | inhibition of HDV infection (in words) (HDV): high antiviral activity; also recorded: greatly improved potency; inhibition of NTCP substrate uptake (in words) (NTCP): significantly higher efficiency than that of TUDCA |
| C[C@H](CCC(=O)NCCS(=O)(=O)O)[C@H]1CC[C@H]2[C@@H]3[C@@H](O)CC4CC(NC(=O)CCCC(=O)NC5CC[C@@]6(C)C(C5)C[C@H](O)[C@H]5[C@@H]7CC[C@H]([C@H](C)CCC(=O)NCCS(=O)(=O)O)[C@@]7(C)CC[C@@H]56)CC[C@]4(C)[C@H]3CC[C@]12C (stereo partly shown) [NQL-021] | – | inhibition of HBV infection on HepaRG cells (in words) (HBV [1]): inhibited HBV infection |
| C[C@H](CCC(=O)NCCS(=O)(=O)O)[C@H]1CC[C@H]2[C@@H]3[C@@H](O)CC4C[C@H](NC(=O)CCCC(=O)N[C@@H]5CC[C@@]6(C)C(C5)C[C@H](O)[C@H]5[C@@H]7CC[C@H]([C@H](C)CCC(=O)NCCS(=O)(=O)O)[C@@]7(C)CC[C@@H]56)CC[C@]4(C)[C@H]3CC[C@]12C (stereo partly shown) [NQL-044] | high antiviral activity | inhibition of HDV infection (in words) (HDV): high antiviral activity; in vitro stability (antiviral potency after long incubation with the inoculum) (HBV [3]): much more stable as no significant potency decrease was observed |
| C[C@H](CCC(=O)NCCS(=O)(=O)O)[C@H]1CC[C@H]2[C@@H]3[C@@H](O)CC4C[C@H](OCc5cn([C@@H]6CC[C@@]7(C)C(C6)C[C@H](O)[C@H]6[C@@H]8CC[C@H]([C@H](C)CCC(=O)NCCS(=O)(=O)O)[C@@]8(C)CC[C@@H]67)nn5)CC[C@]4(C)[C@H]3CC[C@]12C (stereo partly shown) [NQL-055] | – | in vitro stability (antiviral potency after long incubation with the inoculum) (HBV [3]): much more stable as no significant potency decrease was observed |
| C[C@H](CCC(=O)NCCS(=O)(=O)O)[C@H]1CC[C@H]2[C@@H]3[C@@H](O)CC4C[C@H](O)CC[C@]4(C)[C@H]3CC[C@]12C (stereo partly shown) [TUDCA, Tauroursodeoxycholic acid, reference compound] | most potent one among all bile acid derivatives tested | – |
